In patent publication US10023565B2, “N,N′ substituted piperidinamine compounds, and preparation method and usage thereof” (Institute of Pharmacology and Toxicology Academy of …, priority 2013, dated 2018):

Key:
Format in all cases: cell-based
MIA-PaCa-2 = assay: Extended test against tumor cell lines (ATPlite); conditions: MIA-PaCa-2 (pancreatic cancer), 72 hours
Experimental: (§1) The compounds of Examples 36/37/40/47/49 were used to carry out extended test against tumor cell lines, wherein 12 kinds of cells were selected, including liver cancer cells, gastric cancer cells, pancreatic cancer cells, colorectal cancer cells, lung cancer cells and normal cells, which were shown in Table 12:
(§2) A 100 mm culture dish with overgrown adherent cells was digested with 1 ml 0.25% trypsin (GIBCO) at 37° C. for 5 min, and the reaction was terminated with 2 ml culture medium (containing 10% FBS, GIBCO). The cells were scattered and collected, after counting, diluted to 1×10^5 cells/ml, and seeded into a 96-well plate at 50 μl/well, 5000 cells/well, excluding the peripheral circle of wells in which no cell was added, but PBS was added, 54 wells in total, and then incubated at 37° C. for 24 hours for adhering.
(§3) The test sample was diluted to final concentration of 4, 1, 0.25, 0.063, 0.016 μM, culture medium was filled in control well, 3 parellel wells were set for each concentration, 50 μl each well, followed by incubation at 37° C. for 72 hours.
(§4) 3) Test after incubation at 37° C. for 72 hours: 50 μL of ATPlite kitsubstrate solution was added in each well, and vibrated for 3 min, followed by placing aside in darkness for 10 min, and then supernatant 100 μl/well was taken and placed on a luminescence test plate; the luminescence test plate that has been fully incubated was placed in a luminescence test instrument, to read luminescence value.
(§5) Cell survival rate (%)=Experimental group RLU/control group RLU×100%. The experimental data were subjected to data analysis and processing by utilizing GraphPad software.

[1] = system: MRC5 (lung epithelial fibroblast); assay: Extended test against tumor cell lines (ATPlite); conditions: MRC5 (normal cells), 72 hours
Experimental: as §1, §2, §3, §4, §5

[2] = system: WI-38 (human embryonic lung fibroblast); assay: Extended test against tumor cell lines (ATPlite); conditions: WI-38 (normal cells), 72 hours
Experimental: as §1, §2, §3, §4, §5

COLO205 = assay: Extended test against tumor cell lines (ATPlite); conditions: COLO205 (colorectal cancer), 72 hours
Experimental: as §1, §2, §3, §4, §5

Huh-7 = assay: Extended test against tumor cell lines (ATPlite); conditions: Huh-7 (liver cancer), 72 hours
Experimental: as §1, §2, §3, §4, §5

[3] = system: tumor cells and normal cells (12 kinds of cells); assay: Extended test against tumor cell lines, statements on the whole panel; conditions: for inhibition of tumor cells versus cytotoxicity to normal cells: 12 kinds of cells, 0.016-4 μM, 72 hours
Experimental: as §1, §2, §3, §4, §5

Structure (SMILES)	Survival rate (MIA-PaCa-2; 0.016 μM)	Survival rate (MIA-PaCa-2; 0.063 μM)	Survival rate (MIA-PaCa-2; 0.25 μM)	Survival rate (MIA-PaCa-2; 1 μM)	Survival rate (MIA-PaCa-2; 4 μM)	Survival rate ([1]; 0.016 μM)	Survival rate ([1]; 0.063 μM)	Survival rate ([1]; 0.25 μM)	Survival rate ([1]; 1 μM)	Survival rate ([1]; 4 μM)	Survival rate ([2]; 0.016 μM)	Survival rate ([2]; 0.063 μM)	Survival rate ([2]; 0.25 μM)	Survival rate ([2]; 1 μM)	Survival rate ([2]; 4 μM)	Survival rate (COLO205; 0.016 μM)	Survival rate (COLO205; 0.063 μM)	Survival rate (COLO205; 0.25 μM)	Survival rate (COLO205; 1 μM)	Survival rate (COLO205; 4 μM)	other results
CSc1nccc(N2CCC(N(C)Cc3c(Cl)cccc3Cl)CC2)n1 [Example 49, N-methyl-N-(2,6-dichlorobenzyl)-N-[1-(2-methylthiopyrimidin-4-yl)piperidin-4-yl]amine]	97.6%	97.4%	92.8%	33.1%	22.9%	100.6%	100.1%	94.8%	80.8%	41.1%	98.5%	97.3%	92.4%	79.8%	48.4%	98.1%	94.2%	95.8%	83.9%	4.1%	Survival rate (Huh-7; 0.016 μM): 91.3%; Survival rate (Huh-7; 0.063 μM): 82%; Survival rate (Huh-7; 0.25 μM): 70.5%; Survival rate (Huh-7; 1 μM): 19.4%; Survival rate (Huh-7; 4 μM): 12.8%; inhibition of tumor cells versus cytotoxicity to normal cells [3]: certain inhibition and cytotoxicity to either tumor cells or normal cells, without significant difference
CSc1nccc(N2CCC(N(C)Cc3ccc(Cl)cc3Cl)CC2)n1 [Example 40, N-methyl-N-(2,4-dichlorobenzyl)-N-[1-(2-methylthiopyrimidin-4-yl)piperidin-4-yl]amine]	94.6%	94.8%	90.2%	77.3%	20.6%	93.6%	88.9%	91.9%	86.5%	67.6%	99.3%	97.3%	95.8%	92.3%	64.2%	96.2%	98.2%	98.6%	91.9%	30.3%	Survival rate (Huh-7; 0.016 μM): 93.8%; Survival rate (Huh-7; 0.063 μM): 90.7%; Survival rate (Huh-7; 0.25 μM): 87.3%; Survival rate (Huh-7; 1 μM): 65.2%; Survival rate (Huh-7; 4 μM): 14.3%; inhibition of tumor cells versus cytotoxicity to normal cells [3]: slightly stronger inhibition to liver cancer than that to other tumor cells, and exhibited cytotoxicity to normal cells lower than inhibition to tumor cells
CSc1nccc(N2CCC(N(C)Cc3ccccc3Cl)CC2)n1 [Example 47, N-methyl-N-(2-chlorobenzyl)-N-[1-(2-methylthiopyrimidin-4-yl)piperidin-4-yl]amine]	98.5%	99.3%	97.4%	88.5%	24.5%	97.3%	99.5%	100.3%	92.6%	74.8%	102.1%	99.7%	100.4%	95.1%	82.1%	98.2%	96.7%	97.9%	96.1%	23.3%	Survival rate (Huh-7; 0.016 μM): 91.1%; Survival rate (Huh-7; 0.063 μM): 88.3%; Survival rate (Huh-7; 0.25 μM): 81.4%; Survival rate (Huh-7; 1 μM): 65.9%; Survival rate (Huh-7; 4 μM): 16.7%; inhibition of tumor cells versus cytotoxicity to normal cells [3]: slightly stronger inhibition to liver cancer than that to other tumor cells, and exhibited cytotoxicity to normal cells lower than inhibition to tumor cells; effect compared with the compounds of other Examples ([3]; Examples 36/37/40/47/49 compared): effect superior to that of the compounds of other Examples
CSc1nccc(N2CCC(N(C)Cc3ccc(C#N)cc3)CC2)n1 [Example 36, N-methyl-N-(4-cyanobenzyl)-N-[1-(2-methylthiopyrimidin-4-yl)piperidin-4-yl]amine]	91.6%	92.2%	91.2%	66.0%	22.2%	96.8%	96.1%	91.0%	76.1%	39.1%	93.9%	93.7%	91.5%	82.0%	51.1%	96.7%	96.9%	95.3%	84.5%	4.9%	Survival rate (Huh-7; 0.016 μM): 90.9%; Survival rate (Huh-7; 0.063 μM): 88.2%; Survival rate (Huh-7; 0.25 μM): 83.0%; Survival rate (Huh-7; 1 μM): 65.4%; Survival rate (Huh-7; 4 μM): 14.3%; inhibition of tumor cells versus cytotoxicity to normal cells [3]: certain inhibition and cytotoxicity to either tumor cells or normal cells, without significant difference
CSc1nccc(N2CCC(N(C)Cc3c(F)cccc3Cl)CC2)n1 [Example 37, N-methyl-N-(2-fluoro-6-chlorobenzyl)-N-[1-(2-methylthiopyrimidin-4-yl)piperidin-4-yl]amine]	97.6%	97.5%	91.5%	61.9%	16%	97.3%	99.5%	93.5%	90.4%	65.3%	98.6%	99.2%	95.5%	89.7%	65.6%	100.1%	97.5%	100.4%	94.5%	12.9%	Survival rate (Huh-7; 0.016 μM): 91.9%; Survival rate (Huh-7; 0.063 μM): 86.7%; Survival rate (Huh-7; 0.25 μM): 82.3%; Survival rate (Huh-7; 1 μM): 46.7%; Survival rate (Huh-7; 4 μM): 14.9%; inhibition of tumor cells versus cytotoxicity to normal cells [3]: slightly stronger inhibition to liver cancer than that to other tumor cells, and exhibited cytotoxicity to normal cells lower than inhibition to tumor cells
